Read-outs that look alike come from different tables or passages of the source.
Experiments:
Assay in all cases: Kinase selectivity, P33-radiolabeled assay
Assay type in all cases: biochemical
[1] = target: T1, ALK (Homo sapiens, UniProt Q9UM73); details: 10 μM ATP
T1 construct: purchased Reaction Biology Corp
Outline: (§1)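 ATP at 10 μM; test article at 10 μM, single point, two replicates. Output is activity as % of DMSO.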

[2] = target: T2, CAMK1g (Homo sapiens, UniProt Q96NX5); details: 10 μM ATP
T2 construct: purchased Reaction Biology Corp
T2 sequence (Q96NX5 whole entry): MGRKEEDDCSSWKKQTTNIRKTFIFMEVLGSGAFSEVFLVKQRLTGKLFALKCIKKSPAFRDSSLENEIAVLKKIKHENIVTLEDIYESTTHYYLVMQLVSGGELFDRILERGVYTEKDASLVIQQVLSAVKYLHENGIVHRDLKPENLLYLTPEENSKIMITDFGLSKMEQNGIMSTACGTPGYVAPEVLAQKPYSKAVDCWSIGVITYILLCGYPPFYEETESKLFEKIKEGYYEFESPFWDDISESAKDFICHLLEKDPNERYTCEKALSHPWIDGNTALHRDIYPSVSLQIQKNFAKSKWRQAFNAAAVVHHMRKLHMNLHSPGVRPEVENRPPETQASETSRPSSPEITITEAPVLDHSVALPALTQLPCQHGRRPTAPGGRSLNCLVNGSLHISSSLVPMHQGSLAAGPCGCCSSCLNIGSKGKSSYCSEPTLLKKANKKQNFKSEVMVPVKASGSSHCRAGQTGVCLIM
Outline: as §1

[3] = target: T3, CDK1/cyclin E (Homo sapiens, UniProt P06493); details: 10 μM ATP
T3 construct: purchased Reaction Biology Corp
T3 sequence (P06493 whole entry): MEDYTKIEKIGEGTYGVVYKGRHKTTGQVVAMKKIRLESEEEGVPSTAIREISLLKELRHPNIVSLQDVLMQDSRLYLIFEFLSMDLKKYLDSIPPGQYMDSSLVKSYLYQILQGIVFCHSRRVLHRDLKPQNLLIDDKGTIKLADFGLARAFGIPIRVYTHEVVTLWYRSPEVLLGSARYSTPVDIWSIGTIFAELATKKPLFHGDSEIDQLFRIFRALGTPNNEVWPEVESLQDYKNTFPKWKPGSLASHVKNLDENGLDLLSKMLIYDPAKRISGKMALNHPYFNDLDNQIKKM
T3 sequence (P24864 whole entry partner): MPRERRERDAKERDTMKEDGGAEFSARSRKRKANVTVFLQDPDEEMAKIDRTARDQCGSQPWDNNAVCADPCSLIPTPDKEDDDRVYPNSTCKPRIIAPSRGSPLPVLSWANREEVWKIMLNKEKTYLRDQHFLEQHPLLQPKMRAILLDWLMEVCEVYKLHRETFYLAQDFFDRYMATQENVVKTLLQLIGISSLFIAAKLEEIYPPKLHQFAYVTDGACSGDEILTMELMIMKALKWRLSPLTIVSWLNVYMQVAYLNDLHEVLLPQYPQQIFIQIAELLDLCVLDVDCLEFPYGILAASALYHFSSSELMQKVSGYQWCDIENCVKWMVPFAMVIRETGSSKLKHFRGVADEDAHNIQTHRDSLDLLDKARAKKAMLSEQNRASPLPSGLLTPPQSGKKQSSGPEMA
Outline: as §1

[4] = target: T4, CDK4/cyclin D3 (Homo sapiens, UniProt P11802); details: 10 μM ATP
T4 construct: purchased Reaction Biology Corp
T4 sequence (P11802 whole entry): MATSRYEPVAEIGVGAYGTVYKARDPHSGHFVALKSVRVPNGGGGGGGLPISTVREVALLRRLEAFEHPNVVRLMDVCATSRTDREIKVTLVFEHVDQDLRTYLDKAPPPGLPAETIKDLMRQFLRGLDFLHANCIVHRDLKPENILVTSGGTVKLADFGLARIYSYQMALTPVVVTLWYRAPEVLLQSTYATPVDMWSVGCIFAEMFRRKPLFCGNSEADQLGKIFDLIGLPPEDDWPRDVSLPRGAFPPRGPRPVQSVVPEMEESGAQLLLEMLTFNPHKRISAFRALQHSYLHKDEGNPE
T4 sequence (P30281 whole entry partner): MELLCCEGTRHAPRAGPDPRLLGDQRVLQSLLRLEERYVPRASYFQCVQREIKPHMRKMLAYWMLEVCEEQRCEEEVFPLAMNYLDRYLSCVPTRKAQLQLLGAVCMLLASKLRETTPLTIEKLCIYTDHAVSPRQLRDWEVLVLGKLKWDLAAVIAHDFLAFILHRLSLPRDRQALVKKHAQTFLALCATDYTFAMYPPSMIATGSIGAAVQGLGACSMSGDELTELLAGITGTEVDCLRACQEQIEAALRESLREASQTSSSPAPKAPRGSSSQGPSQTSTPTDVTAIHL
Outline: as §1

[5] = target: T5, FGFR1 (Homo sapiens, UniProt P11362); details: 10 μM ATP
T5 construct: purchased Reaction Biology Corp
T5 sequence (P11362 22-822): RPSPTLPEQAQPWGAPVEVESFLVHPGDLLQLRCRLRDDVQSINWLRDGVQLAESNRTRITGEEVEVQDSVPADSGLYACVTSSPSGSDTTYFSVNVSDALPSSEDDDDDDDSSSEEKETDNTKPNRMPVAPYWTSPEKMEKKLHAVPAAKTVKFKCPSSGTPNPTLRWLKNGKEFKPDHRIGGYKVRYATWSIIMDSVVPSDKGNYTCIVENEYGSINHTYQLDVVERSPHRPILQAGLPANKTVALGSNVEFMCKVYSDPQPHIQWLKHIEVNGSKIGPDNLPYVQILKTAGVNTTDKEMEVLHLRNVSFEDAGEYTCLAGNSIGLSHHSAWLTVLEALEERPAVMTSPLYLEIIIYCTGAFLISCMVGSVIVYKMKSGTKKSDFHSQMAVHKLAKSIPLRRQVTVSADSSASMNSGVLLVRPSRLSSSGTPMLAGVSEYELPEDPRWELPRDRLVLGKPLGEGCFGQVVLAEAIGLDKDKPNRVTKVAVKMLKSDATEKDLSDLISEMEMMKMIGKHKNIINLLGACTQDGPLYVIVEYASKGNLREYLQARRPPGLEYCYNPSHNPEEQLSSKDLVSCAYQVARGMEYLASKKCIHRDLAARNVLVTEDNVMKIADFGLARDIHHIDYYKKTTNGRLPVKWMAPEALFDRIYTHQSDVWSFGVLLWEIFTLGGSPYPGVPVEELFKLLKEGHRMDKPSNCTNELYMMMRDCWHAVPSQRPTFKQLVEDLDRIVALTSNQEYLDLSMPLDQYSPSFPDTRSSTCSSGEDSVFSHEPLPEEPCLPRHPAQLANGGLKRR
Outline: as §1

[6] = target: T6, LIMK1 (Homo sapiens, UniProt P53667); details: 10 μM ATP
T6 construct: purchased Reaction Biology Corp
T6 sequence (P53667 whole entry): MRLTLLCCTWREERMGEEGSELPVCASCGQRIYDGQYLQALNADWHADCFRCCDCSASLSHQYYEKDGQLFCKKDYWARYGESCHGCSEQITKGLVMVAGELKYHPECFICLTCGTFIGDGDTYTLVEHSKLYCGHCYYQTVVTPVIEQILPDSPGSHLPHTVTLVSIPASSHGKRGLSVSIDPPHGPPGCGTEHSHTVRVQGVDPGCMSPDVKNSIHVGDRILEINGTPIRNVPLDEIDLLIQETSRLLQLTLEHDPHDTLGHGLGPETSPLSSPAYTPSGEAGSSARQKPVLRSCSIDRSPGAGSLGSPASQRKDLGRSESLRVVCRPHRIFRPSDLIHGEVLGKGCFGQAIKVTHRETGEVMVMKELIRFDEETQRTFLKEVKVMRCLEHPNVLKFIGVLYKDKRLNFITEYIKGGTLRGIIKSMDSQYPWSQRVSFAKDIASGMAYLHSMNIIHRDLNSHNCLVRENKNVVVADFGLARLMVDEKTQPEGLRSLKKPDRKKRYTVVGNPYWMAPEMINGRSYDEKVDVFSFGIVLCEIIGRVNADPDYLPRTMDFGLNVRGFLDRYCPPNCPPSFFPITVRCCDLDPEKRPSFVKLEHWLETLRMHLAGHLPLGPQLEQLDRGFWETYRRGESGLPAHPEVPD
Outline: as §1

[7] = target: T7, NEK2 (Homo sapiens, UniProt P51955); details: 10 μM ATP
T7 construct: purchased Reaction Biology Corp
T7 sequence (P51955 1-445): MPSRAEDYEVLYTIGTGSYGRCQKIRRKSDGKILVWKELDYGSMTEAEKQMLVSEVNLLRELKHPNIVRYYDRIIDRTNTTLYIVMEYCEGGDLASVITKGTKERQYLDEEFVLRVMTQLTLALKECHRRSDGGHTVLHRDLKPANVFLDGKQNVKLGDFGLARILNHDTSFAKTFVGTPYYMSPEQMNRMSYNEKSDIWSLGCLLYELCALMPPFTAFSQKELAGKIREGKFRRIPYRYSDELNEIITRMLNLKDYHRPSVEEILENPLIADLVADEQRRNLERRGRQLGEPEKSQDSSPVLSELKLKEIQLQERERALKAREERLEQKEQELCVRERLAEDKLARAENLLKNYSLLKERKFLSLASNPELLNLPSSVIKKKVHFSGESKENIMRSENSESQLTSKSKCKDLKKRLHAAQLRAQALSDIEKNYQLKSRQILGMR
Outline: as §1

[8] = target: T8, PKD2/PRKD2 (Homo sapiens, UniProt Q9BZL6); details: 10 μM ATP
T8 construct: purchased Reaction Biology Corp
T8 sequence (Q9BZL6 1-878): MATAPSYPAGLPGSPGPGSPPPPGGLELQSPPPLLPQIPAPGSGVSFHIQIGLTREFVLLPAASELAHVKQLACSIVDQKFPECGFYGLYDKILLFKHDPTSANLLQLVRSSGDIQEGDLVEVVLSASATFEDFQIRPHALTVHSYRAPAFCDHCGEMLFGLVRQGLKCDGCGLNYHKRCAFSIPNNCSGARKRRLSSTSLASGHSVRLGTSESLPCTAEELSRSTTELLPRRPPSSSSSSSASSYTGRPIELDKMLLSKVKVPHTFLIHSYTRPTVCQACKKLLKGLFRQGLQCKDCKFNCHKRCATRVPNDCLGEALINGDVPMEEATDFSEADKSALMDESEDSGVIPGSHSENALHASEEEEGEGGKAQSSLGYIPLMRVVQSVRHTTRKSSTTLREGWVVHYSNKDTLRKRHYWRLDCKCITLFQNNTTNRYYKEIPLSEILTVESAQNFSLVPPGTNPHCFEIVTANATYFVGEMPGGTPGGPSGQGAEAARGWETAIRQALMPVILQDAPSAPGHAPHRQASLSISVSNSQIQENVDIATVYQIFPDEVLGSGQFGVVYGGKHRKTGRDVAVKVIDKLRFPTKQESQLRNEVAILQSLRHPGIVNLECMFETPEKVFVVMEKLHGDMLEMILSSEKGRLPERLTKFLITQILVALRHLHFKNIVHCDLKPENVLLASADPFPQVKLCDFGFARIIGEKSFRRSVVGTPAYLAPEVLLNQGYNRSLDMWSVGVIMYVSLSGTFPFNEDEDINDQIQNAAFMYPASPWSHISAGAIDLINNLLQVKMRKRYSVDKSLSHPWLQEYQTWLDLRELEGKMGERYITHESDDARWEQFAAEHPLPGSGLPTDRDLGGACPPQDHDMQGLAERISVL
Outline: as §1

[9] = target: T9, ROS/ROS1 (Homo sapiens, UniProt P08922)
T9 construct: purchased Reaction Biology Corp
Outline: as §1

[10] = target: T10, RSK4 (Homo sapiens, UniProt Q9UK32); details: 10 μM ATP
T10 construct: purchased Reaction Biology Corp
Outline: as §1

[11] = target: T11, TIE2/TEK (Homo sapiens, UniProt Q02763); details: 10 μM ATP
T11 construct: purchased Reaction Biology Corp
Outline: as §1

[12] = target: T12, TSSK2 (Homo sapiens, UniProt Q96PF2); details: 10 μM ATP
T12 construct: purchased Reaction Biology Corp
T12 sequence (Q96PF2 1-358): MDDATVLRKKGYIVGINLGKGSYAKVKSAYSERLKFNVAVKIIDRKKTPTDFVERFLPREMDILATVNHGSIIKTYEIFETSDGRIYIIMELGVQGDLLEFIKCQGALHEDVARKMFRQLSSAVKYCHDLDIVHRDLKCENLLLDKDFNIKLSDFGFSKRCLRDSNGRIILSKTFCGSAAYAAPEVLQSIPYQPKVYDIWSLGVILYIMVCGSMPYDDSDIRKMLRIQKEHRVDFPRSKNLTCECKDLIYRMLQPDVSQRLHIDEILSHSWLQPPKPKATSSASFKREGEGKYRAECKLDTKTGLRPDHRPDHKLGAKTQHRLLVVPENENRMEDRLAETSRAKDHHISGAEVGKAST
Outline: as §1

[13] = target: T13, c-MET (Homo sapiens, UniProt P08581); details: 10 μM ATP
T13 construct: purchased Reaction Biology Corp
Outline: as §1

[14] = read-out: % Enzyme Activity (relative to DMSO controls) AVG
[15] = read-out: % Enzyme Activity (relative to DMSO controls) Data 1
[16] = read-out: % Enzyme Activity (relative to DMSO controls) Data 2

T1 sequence (Q9UM73 19-1620): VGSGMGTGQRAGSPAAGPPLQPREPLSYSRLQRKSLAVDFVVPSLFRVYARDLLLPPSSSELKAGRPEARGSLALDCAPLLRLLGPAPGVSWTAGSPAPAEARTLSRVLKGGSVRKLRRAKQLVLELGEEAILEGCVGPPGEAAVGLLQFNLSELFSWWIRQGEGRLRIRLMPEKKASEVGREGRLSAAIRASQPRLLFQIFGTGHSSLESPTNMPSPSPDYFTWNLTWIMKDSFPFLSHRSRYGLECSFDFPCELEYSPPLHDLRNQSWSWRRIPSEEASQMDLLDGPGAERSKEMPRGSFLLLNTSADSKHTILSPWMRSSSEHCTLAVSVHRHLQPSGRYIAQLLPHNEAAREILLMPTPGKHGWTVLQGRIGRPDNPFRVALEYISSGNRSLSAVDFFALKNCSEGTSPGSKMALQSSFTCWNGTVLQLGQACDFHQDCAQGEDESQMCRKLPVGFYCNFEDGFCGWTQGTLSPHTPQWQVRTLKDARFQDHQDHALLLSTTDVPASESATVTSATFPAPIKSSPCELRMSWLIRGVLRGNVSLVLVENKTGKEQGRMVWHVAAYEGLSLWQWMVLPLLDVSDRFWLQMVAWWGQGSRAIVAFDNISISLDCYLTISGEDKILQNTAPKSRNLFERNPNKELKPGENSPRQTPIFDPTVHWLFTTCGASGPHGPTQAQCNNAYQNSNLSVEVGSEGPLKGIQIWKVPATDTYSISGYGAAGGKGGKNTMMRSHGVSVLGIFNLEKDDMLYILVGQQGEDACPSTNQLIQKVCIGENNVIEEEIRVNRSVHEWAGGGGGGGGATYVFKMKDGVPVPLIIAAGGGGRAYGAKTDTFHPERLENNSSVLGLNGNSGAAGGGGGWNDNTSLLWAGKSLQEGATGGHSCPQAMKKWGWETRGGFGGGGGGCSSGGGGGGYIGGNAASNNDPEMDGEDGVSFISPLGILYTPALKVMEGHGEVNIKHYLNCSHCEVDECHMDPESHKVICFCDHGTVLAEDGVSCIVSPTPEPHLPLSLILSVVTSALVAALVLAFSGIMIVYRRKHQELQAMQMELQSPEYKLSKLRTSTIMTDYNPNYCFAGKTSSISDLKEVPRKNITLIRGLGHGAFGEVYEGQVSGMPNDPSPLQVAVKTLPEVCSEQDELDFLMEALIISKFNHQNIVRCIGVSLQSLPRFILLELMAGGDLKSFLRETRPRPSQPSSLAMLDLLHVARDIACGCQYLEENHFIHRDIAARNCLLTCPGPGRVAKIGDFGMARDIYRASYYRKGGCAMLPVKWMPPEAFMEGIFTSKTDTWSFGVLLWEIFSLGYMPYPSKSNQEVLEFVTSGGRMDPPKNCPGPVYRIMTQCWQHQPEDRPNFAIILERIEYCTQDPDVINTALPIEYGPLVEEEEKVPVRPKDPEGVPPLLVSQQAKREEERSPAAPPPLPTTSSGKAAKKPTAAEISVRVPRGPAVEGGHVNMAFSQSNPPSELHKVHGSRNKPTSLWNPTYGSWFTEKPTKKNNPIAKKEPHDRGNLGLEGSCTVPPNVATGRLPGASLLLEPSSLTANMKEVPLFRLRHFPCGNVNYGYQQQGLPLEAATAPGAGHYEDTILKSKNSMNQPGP

SMILES: CC(C)(C)C(=O)N1N=CC[C@H]1c1ccccc1 [GSK′963]
- remaining activity at 10 µM [1, 14]: 101%
- remaining activity at 10 µM [1, 15]: 97.3%
- remaining activity at 10 µM [1, 16]: 105%
- remaining activity at 10 µM [2, 14]: 82.4%
- remaining activity at 10 µM [2, 15]: 81.8%
- remaining activity at 10 µM [2, 16]: 83%
- remaining activity at 10 µM [3, 14]: 98.2%
- remaining activity at 10 µM [3, 15]: 102%
- remaining activity at 10 µM [3, 16]: 94.7%
- remaining activity at 10 µM [4, 14]: 96.2%
- remaining activity at 10 µM [4, 15]: 98.3%
- remaining activity at 10 µM [4, 16]: 94.1%
- remaining activity at 10 µM [5, 14]: 95%
- remaining activity at 10 µM [5, 15]: 95.2%
- remaining activity at 10 µM [5, 16]: 94.8%
- remaining activity at 10 µM [6, 14]: 113%
- remaining activity at 10 µM [6, 15]: 112%
- remaining activity at 10 µM [6, 16]: 114%
- remaining activity at 10 µM [7, 14]: 107%
- remaining activity at 10 µM [7, 15]: 108%
- remaining activity at 10 µM [7, 16]: 106%
- remaining activity at 10 µM [8, 14]: 102%
- remaining activity at 10 µM [8, 15]: 101%
- remaining activity at 10 µM [8, 16]: 104%
- remaining activity at 10 µM ([9]; 10 uM, 10 μM ATP, read-out: % Enzyme Activity (relative to DMSO controls) Data 1): 102%
- remaining activity at 10 µM ([9]; 10 uM, 10 μM ATP, read-out: % Enzyme Activity (relative to DMSO controls) Data 2): 100%
- remaining activity at 10 µM [9, 14]: 101%
- remaining activity at 10 µM [10, 14]: 116%
- remaining activity at 10 µM [10, 15]: 116%
- remaining activity at 10 µM [10, 16]: 116%
- remaining activity at 10 µM [11, 14]: 98.1%
- remaining activity at 10 µM [11, 15]: 95.5%
- remaining activity at 10 µM [11, 16]: 101%
- remaining activity at 10 µM [12, 14]: 104%
- remaining activity at 10 µM [12, 15]: 102%
- remaining activity at 10 µM [12, 16]: 105%
- remaining activity at 10 µM [13, 14]: 94.5%
- remaining activity at 10 µM [13, 15]: 90.7%
- remaining activity at 10 µM [13, 16]: 98.3%

Reference: PMC4979471 (Cell Death Discovery, 2015)
